Assay results published in patent US11845990B2, “Prediction of sleep parameter and response to sleep-inducing compound based on PER3 VNTR genotype” (Vanda Pharmaceuticals Inc., priority 2007, dated 2023).

Key:
healthy volunteers = assay: Previous tolerability studies in healthy volunteers; type: in vivo
[1] = Solubility and pH of saturated solution; type: physicochemical
[2] = tested on: healthy male and female subjects with induced transient insomnia; assay: Induced transient insomnia clinical study (first night effect plus 5-hour phase advance), polysomnography, by PER3 VNTR genotype; type: in vivo, human; set-up: greater sleep efficiency over subjects on placebo (full night) / lower sleep efficiency than subjects on placebo (full night) / sleep efficiency higher than in placebo, first third of the night / sleep efficiency higher than in placebo, second third of the night / sleep efficiency lower than in placebo, first third of the night / sleep efficiency lower than in placebo, second third of the night: concentration or dose not given beside the values
Description: The effect of this polymorphism was investigated with respect to various sleep parameters (latency to persistent sleep, wake after sleep onset, sleep efficiency), which evaluated objectively by polysomnography in healthy subjects treated with (1R-trans)-N-[[2-(2,3-dihydro-4-benzofuranyl)cyclopropyl]methyl]propanamide, or treated with a placebo, in a clinical protocol that models transient insomnia.
Transient insomnia can be induced in a laboratory setting as a result of a “first night effect” in which sleep onset and sleep maintenance are disrupted in normal sleeping adults by sleeping in an unfamiliar surrounding. This model of transient insomnia has been validated in several studies of normal sleeping adults. Insomnia can also be precipitated by other factors such as traveling across multiple time zones (jet lag). This condition can be reproduced in a sleep laboratory by forcing an earlier bedtime (phase advance). The study reported here used both, the first night effect and a 5-hour phase advance component, to increase the likelihood that transient insomnia will be induced. A multi-center, randomized, double-blind, placebo-controlled, parallel study was conducted to investigate the efficacy and safety of a single oral dose of (1R-trans)-N-[[2-(2,3-dihydro-4-benzofuranyl)cyclopropyl]methyl]propanamide (20 mg, 50 mg, and 100 mg) and matching placebo in healthy male and female subjects with induced transient insomnia. […] Latency to Persistent Sleep (LPS), Wake After Sleep Onset (WASO) and sleep efficiency (SE) were evaluated objectively by use of polysomnography.
More than 70% of subjects who enrolled in the clinical trial consented to the optional PG study. From those, 288 were genotyped for the PER3 VNTR polymorphism.

CCC(=O)NC[C@@H]1C[C@H]1c1cccc2c1CCO2 [(1R-trans)-N-[[2-(2,3-dihydro-4-benzofuranyl)cyclopropyl]methyl]propanamide]
tolerability, multiple doses (healthy volunteers; multiple doses (up to 28 days) up to 150 mg): well-tolerated
tolerability, single doses (healthy volunteers; single doses up to 300 mg): well-tolerated
solubility in organic solvents ([1]; 95% ethanol, methanol, acetonitrile, ethyl acetate, isopropanol, polyethylene glycols (PEG-300 and PEG-400)): very soluble or freely soluble
native pH of a saturated solution in water ([1]; saturated solution in water): 8.5
effect of pH on aqueous solubility ([1]; water): practically unaffected by pH
solubility in water ([1]; water): only slightly soluble
shorter LPS period than with placebo ([2]; PER3 4/4 and 4/5 genotypes): 30 min
shorter LPS period than with placebo (percent) ([2]; PER3 4/4 and 4/5 genotypes): 56%
smaller WASO than with placebo ([2]; PER3 4/4 and 4/5 genotypes): 21 min
smaller WASO than with placebo (percent) ([2]; PER3 4/4 and 4/5 genotypes): 16%
sleep efficiency higher than in placebo, first third of the night ([2]; PER3 4/4 and 4/5 genotypes, first third of night): 29%
greater sleep efficiency over subjects on placebo (full night) ([2]; PER3 4/4 and 4/5 genotypes, full night): 12%
sleep efficiency higher than in placebo, second third of the night ([2]; PER3 4/4 and 4/5 genotypes, second third of night): 22.8%
longer WASO than with placebo ([2]; PER3 5/5 genotype): 32 min
longer WASO than with placebo (percent) ([2]; PER3 5/5 genotype): 32.7%
shorter LPS than with placebo ([2]; PER3 5/5 genotype): 8 min
shorter LPS than with placebo (percent) ([2]; PER3 5/5 genotype): 27%
sleep efficiency lower than in placebo, first third of the night ([2]; PER3 5/5 genotype, first third of night): 7.2%
lower sleep efficiency than subjects on placebo (full night) ([2]; PER3 5/5 genotype, full night): 9.5%
sleep efficiency lower than in placebo, second third of the night ([2]; PER3 5/5 genotype, second third of night): 3.4%
efficacy in improving LPS, WASO, and Sleep Efficiency ([2]; single oral dose 20, 50 or 100 mg, induced transient insomnia, vs placebo): efficacious
sleep efficiency improvement in the third part of the night ([2]; third third of night, vs placebo): no improvement
